The values below come from ChEMBL document CHEMBL1157955, “Anti-inflammatory neolignans from Piper kadsura” (J Nat Prod, 2006).

The experiment in a line: Antiinflammatory activity in human PMN assessed as inhibition of Phorbol-12-myristate-13-acetate-induced ROS production. Type of experiment: functional.

pIC50: −log10 of the molar value.

Regarding `C=CCC1([C@H](C)[C@@H](OC(C)=O)c2ccc(OC)c(OC)c2)C=C(OC)C(OC)=CC1=O` (stereo not given in full) [PIPERKADSIN B], the pIC50 (as a rule, −log10 of the IC50, conventionally taken in molar units) was 4.91. Consider `C=CCC1=CC(OC)(/C(C)=C/c2ccc3c(c2)OCO3)C(OC)=CC1=O` (stereo not given) [FUTOQUINOL], for which the pIC50 is 4.88. On to `C=CCC1=C[C@@](OC)(/C(C)=C/c2ccc(O)c(OC)c2)C(OC)=CC1=O` [PIPERKADSIN A], for which the pIC50 is 5.37.

In the case of `COc1c(O)cc2c3c(cc4ccccc4c13)N(OC)C2=O` [PIPERLACTAM S], the pIC50 was 5.15. For `O=C(/C=C/c1ccc(O)cc1)NCCc1ccc(O)cc1` [N-P-COUMAROYL TYRAMINE], the pIC50 was 5.08.
